A short description of the test: Inhibition of Pseudomonas aeruginosa AmpC.

This note sets out measurements from ChEMBL document CHEMBL4602622, “Serendipitous discovery of aryl boronic acids as β-lactamase inhibitors” (Bioorg Med Chem Lett, 2020).

In general, IC50 refers to the concentration that gives 50% inhibition. For the molecule `C1=NC2(CCc3ccc(-c4ccccc4)cc3C2)CN1` (stereo in doubt; 1), half-maximal inhibition (IC50) required 15 µM.

With `C1=NC2(CCc3ccc(-c4ccccc4)cc3C2)CN1` (stereo in doubt), the IC50 was > 100 µM.

For the molecule `O=C(c1nc(-c2ccccc2)cs1)N1CCC(c2ccccn2)C1` (stereo in doubt), the IC50 was > 100 µM.

Regarding `O=C(c1nc(-c2ccccc2)cs1)N1CCC(c2ccccn2)C1` (stereo in doubt; 2), the IC50 is 43 µM.
